This note sets out measurements from patent publication US4968669A, “Parathyroid hormone antagonists” (Merck & Co., Inc., priority 1989, dated 1990).

Test [1] has as its target T1, I^125 -labeled PTH binding to rat osteosarcoma cell line ROS 17/2.8 (Rattus norvegicus, UniProt P25961).
T1 construct: bone-derived rat osteosarcoma cell line ROS 17/2.8; endogenous in cells; host or cells: ROS 17/2.8 rat osteosarcoma cells
T1 sequence (P25961 27-591): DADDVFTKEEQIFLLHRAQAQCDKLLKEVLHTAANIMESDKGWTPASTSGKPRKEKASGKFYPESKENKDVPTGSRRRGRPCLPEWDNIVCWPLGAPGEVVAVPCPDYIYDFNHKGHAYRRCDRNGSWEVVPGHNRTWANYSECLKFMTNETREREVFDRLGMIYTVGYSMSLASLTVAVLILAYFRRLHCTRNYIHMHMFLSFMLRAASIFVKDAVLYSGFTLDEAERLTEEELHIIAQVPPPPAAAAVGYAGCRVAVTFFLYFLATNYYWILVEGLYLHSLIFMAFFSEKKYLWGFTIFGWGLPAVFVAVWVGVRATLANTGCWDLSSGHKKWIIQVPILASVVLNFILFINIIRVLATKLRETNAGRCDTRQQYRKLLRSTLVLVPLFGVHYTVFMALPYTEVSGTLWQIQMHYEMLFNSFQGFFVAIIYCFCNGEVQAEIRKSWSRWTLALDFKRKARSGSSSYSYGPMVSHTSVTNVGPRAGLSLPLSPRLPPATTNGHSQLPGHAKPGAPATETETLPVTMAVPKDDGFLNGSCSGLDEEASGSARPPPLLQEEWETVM
Briefly: PTH binding assay, ROS 17/2.8 cells.

For test [2], the target named is T2, PTH receptor in bovine renal cortical plasma membranes (Bos taurus, UniProt Q1LZF7).
T2 construct: from tissue; host or cells: bovine renal cortex, plasma membranes
T2 sequence (Q1LZF7 29-589): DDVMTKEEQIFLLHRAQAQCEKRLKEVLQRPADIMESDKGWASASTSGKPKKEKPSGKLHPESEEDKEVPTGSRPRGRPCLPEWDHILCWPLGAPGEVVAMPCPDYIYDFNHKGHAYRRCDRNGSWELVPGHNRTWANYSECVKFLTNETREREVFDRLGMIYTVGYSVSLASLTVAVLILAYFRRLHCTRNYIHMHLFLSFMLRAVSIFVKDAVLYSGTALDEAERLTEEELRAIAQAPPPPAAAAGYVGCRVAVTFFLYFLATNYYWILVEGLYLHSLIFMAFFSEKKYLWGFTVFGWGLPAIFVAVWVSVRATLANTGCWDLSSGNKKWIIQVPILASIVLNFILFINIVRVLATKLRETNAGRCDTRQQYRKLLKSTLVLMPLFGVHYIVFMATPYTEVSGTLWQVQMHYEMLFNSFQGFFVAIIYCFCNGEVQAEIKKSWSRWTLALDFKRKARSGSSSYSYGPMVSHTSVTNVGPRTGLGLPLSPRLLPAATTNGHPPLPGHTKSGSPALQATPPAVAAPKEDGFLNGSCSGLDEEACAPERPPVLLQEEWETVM
Briefly: PTH binding assay, bovine renal cortical plasma membranes, radioligand [Nle8,18,125I-Tyr34]bPTH(1-34)NH2. To be noted: 30 min at 21° C. How it is done:
Bovine renal cortical plasma membranes were incubated with radioligand (25,000 cpm) in the absence or presence of PTH analogues in a Tris containing buffer (250 μl) for 30 min. at 21° C. Once equilibrium was reached, bound and free radioligand were separated by centrifugation.

Test [3] concerns the target T3, I^125 -labeled PTH binding to canine renal cortical membranes (Canis lupus familiaris, UniProt Q9TU31).
T3 construct: from tissue; host or cells: canine renal cortex, membranes
T3 sequence (Q9TU31 29-595): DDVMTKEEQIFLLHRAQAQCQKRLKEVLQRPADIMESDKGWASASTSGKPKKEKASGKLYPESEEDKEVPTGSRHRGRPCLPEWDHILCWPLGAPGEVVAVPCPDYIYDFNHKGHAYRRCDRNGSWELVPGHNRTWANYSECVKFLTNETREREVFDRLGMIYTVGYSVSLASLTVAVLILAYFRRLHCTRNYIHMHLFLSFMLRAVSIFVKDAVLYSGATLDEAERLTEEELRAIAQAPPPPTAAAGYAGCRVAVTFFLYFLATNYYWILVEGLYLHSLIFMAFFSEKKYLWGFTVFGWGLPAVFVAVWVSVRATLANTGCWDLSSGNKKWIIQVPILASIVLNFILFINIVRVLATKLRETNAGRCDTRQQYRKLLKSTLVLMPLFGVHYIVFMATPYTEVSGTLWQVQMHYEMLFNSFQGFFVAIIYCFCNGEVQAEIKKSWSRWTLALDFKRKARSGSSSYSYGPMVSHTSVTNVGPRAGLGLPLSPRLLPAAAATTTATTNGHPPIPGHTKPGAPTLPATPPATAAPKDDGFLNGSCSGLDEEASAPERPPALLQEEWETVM
Briefly: PTH binding assay (canine kidney).

Test [4] deals with T4, I^125 -labeled PTH binding to human osteosarcoma cells (BIO) (Homo sapiens, UniProt Q03431).
T4 construct: endogenous in cells; host or cells: human osteosarcoma cells (BIO)
T4 sequence (Q03431 27-593): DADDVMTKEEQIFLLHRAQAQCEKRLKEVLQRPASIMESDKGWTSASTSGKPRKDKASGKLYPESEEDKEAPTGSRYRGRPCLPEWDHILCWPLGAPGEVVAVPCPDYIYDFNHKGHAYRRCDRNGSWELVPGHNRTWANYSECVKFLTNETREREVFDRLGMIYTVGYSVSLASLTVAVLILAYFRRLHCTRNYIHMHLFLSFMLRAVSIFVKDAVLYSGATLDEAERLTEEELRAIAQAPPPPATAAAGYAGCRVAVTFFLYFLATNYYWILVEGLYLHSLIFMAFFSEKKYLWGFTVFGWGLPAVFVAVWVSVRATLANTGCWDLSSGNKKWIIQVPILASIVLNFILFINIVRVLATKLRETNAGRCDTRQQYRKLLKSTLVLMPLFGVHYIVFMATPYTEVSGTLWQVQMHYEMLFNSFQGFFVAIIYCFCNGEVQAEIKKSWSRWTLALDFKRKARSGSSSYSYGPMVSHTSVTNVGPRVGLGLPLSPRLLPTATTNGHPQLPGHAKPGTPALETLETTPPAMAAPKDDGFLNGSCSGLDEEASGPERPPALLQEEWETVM
Briefly: PTH binding assay (human osteosarcoma cells). An excerpt: The results are as follows:

The structures appear in SMILES notation.

A word on the Ki: it is the dissociation constant of the complex between target and ligand, obtained from inhibition or displacement. Read a high Ki as a looser hold on the target. For `CCCC[C@H](NC(=O)[C@H](CO)NC(=O)[C@H](CO)NC(=O)[C@H](CC(C)C)NC(=O)[C@H](Cc1c[nH]cn1)NC(=O)[C@H](CCCCN)NC(=O)CNC(=O)[C@H](CC(C)C)NC(=O)[C@H](CC(N)=O)NC(=O)[C@H](Cc1c[nH]cn1)NC(=O)[C@H](CCCC)NC(=O)[C@@H](N)Cc1ccccc1)C(=O)N[C@@H](CCC(=O)O)C(=O)N[C@@H](CCCNC(=N)N)C(=O)N[C@H](C(=O)N[C@@H](CCC(=O)O)C(=O)N[C@@H](Cc1c[nH]c2ccccc12)C(=O)N[C@@H](CC(C)C)C(=O)N[C@@H](CCCNC(=N)N)C(=O)N[C@@H](CCCCN)C(=O)N[C@@H](CCCCN)C(=O)N[C@@H](CC(C)C)C(=O)N[C@@H](CCC(N)=O)C(=O)N[C@@H](CC(=O)O)C(=O)N[C@H](C(=O)N[C@@H](Cc1c[nH]cn1)C(=O)N[C@@H](CC(N)=O)C(=O)N[C@@H](Cc1ccc(O)cc1)C(N)=O)C(C)C)C(C)C` [[Nle^8,18,Tyr^34]bPTH(7-34)NH2], the Ki in test [1] is 964 ± 170 nM; in test [2], 145 ± 13 nM.

For the compound `CSCC[C@H](NC(=O)[C@H](CO)NC(=O)[C@H](CO)NC(=O)[C@H](CC(C)C)NC(=O)[C@H](Cc1c[nH]cn1)NC(=O)[C@H](CCCCN)NC(=O)CNC(=O)[C@H](CC(C)C)NC(=O)[C@H](CC(N)=O)NC(=O)[C@H](Cc1c[nH]cn1)NC(=O)[C@H](CCSC)NC(=O)[C@@H](N)Cc1ccccc1)C(=O)N[C@@H](CCC(=O)O)C(=O)N[C@@H](CCCNC(=N)N)C(=O)N[C@H](C(=O)N[C@@H](CCC(=O)O)C(=O)N[C@@H](Cc1c[nH]c2ccccc12)C(=O)N[C@@H](CC(C)C)C(=O)N[C@@H](CCCNC(=N)N)C(=O)N[C@@H](CCCCN)C(=O)N[C@@H](CCCCN)C(=O)N[C@@H](CC(C)C)C(=O)N[C@@H](CCC(N)=O)C(=O)N[C@@H](CC(=O)O)C(=O)N[C@H](C(=O)N[C@@H](Cc1c[nH]cn1)C(=O)N[C@@H](CC(N)=O)C(=O)N[C@@H](Cc1ccc(O)cc1)C(N)=O)C(C)C)C(C)C` [[Tyr^34]bPTH(7-34)NH2], the Ki in test [3] is 45.8 ± 11.3 nM; in test [1] it was 700 ± 90 nM; in test [2] it was 76 ± 9 nM; in test [4], 5.5 ± 1.6 nM.
